The values below are quoted from earlier work in US8835453B2, “Sustained release implant for granisetron” (Development Center for Biotechnology, priority 2008, dated 2014).

SMILES strings stand for the structures. Counter-ions that a name gives are not always drawn.

The conditions of this data set: water and normal saline at 20° C.

`CN1C2CCCC1CC(NC(=O)c1nn(C)c3ccccc13)C2` (stereo not drawn) [Granisetron hydrochloride, endo-N-(9-methyl-9-azabicyclo[3.3.1]non-3-yl)-1-methyl-1H-indazole-3-carboxamide]: the solubility entry was “soluble”.
